Measurements as given in ChEMBL document CHEMBL6083262, “Stereorandomized Oncocins with Preserved Ribosome Binding and Antibacterial Activity” (J Med Chem, 2024).
Activity calls are given as the source filed them. The rule behind the calls is not given here. Positions of bridges follow the written chain, without caps; N, C: chain ends. Non-standard residues stand in square brackets, D forms with d. Residues, ends and D or L forms follow the SMILES beside them. *: point of attachment. X1 = CC[C@H](C)CCCCC(=O)*; Dab = NCC[C@H](N)C(=O)O

Columns and labels:
Pseudomonas aeruginosa [1] = assay: Antimicrobial activity against Pseudomonas aeruginosa PAO1 incubated for 16 to 20 hrs in full muller hinton medium by broth microdilution method; format: functional; details: time 16-20 hrs
Klebsiella pneumoniae [2] = assay: Antimicrobial activity against Klebsiella pneumoniae NCTC 418 incubated for 16 to 20 hrs in 12.5 % muller hinton medium by broth microdilution method; format: functional; details: time 16-20 hrs
Pseudomonas aeruginosa [3] = assay: Antibacterial activity against multidrug-resistant Pseudomonas aeruginosa clinical isolate ZEM-1A incubated for 16 to 20 hrs in full muller hinton medium by broth microdilution method; format: functional; details: time 16-20 hrs
Pseudomonas aeruginosa [4] = assay: Antibacterial activity against multidrug-resistant Pseudomonas aeruginosa PA14 4.18 harboring pmrB mutant incubated for 16 to 20 hrs in full muller hinton medium by broth microdilution method; format: functional; details: time 16-20 hrs
Staphylococcus aureus [5] = assay: Antimicrobial activity against methicillin-resistant Staphylococcus aureus COL incubated for 16 to 20 hrs in full muller hinton medium by broth microdilution method; format: functional; details: time 16-20 hrs
Klebsiella pneumoniae [6] = assay: Antimicrobial activity against Klebsiella pneumoniae NCTC 418 incubated for 16 to 20 hrs in full muller hinton medium by broth microdilution method; format: functional; details: time 16-20 hrs
[7] = Hemolytic activity in human RBC incubated for 4 hrs; format: toxicity, cell-based; details: erythrocyte
Bacteria = assay: Binding affinity to his-tagged DnaK (unknown origin) expressed in Escherichia coli BL21 (DE3) in dilute muller hinton medium by microscale thermophoresis analysis
Lipid bilayer [8] = assay: Induction of membrane disruption in egg yolk phosphatidyl choline at 10 ug/ml by measuring vesicle leakage; details: dose 10.0 µg/ml
Staphylococcus aureus [9] = assay: Antimicrobial activity against methicillin-resistant Staphylococcus aureus COL incubated for 16 to 20 hrs in 12.5 % muller hinton medium by broth microdilution method; format: functional; details: time 16-20 hrs
Lipid bilayer [10] = assay: Induction of membrane disruption in egg yolk phosphatidyl glycerol at 10 ug/ml by measuring vesicle leakage; details: dose 10.0 µg/ml
Pseudomonas aeruginosa [11] = assay: Antibacterial activity against multidrug-resistant Pseudomonas aeruginosa PA14 incubated for 16 to 20 hrs in full muller hinton medium by broth microdilution method; format: functional; details: time 16-20 hrs
Pseudomonas aeruginosa [12] = assay: Antibacterial activity against multidrug-resistant Pseudomonas aeruginosa PA14 4.13 harboring phoQ mutant incubated for 16 to 20 hrs in full muller hinton medium by broth microdilution method; format: functional; details: time 16-20 hrs
Klebsiella pneumoniae [13] = assay: Antibacterial activity against multidrug-resistant Klebsiella pneumoniae clinical isolate OXA-48 incubated for 16 to 20 hrs in full muller hinton medium by broth microdilution method; format: functional; details: time 16-20 hrs
Enterobacter cloacae [14] = assay: Antibacterial activity against multidrug-resistant Enterobacter cloacae incubated for 16 to 20 hrs in full muller hinton medium by broth microdilution method; format: functional; details: time 16-20 hrs
rRNA = assay: Binding affinity to [gamma32 P-ATP] labeled Escherichia coli MG1655 23S ribosomal RNA (5-CCCTTGGGACCTACTTC-3') at U2506 position assessed as increase in band intensity at 1 uM incubated for 2.5 hrs in full muller hinton medium by CMCT based gel electrophoresis; format: nucleic-acid assay
Klebsiella pneumoniae [15] = assay: Antibacterial activity against multidrug-resistant Klebsiella pneumoniae clinical isolate OXA-48 incubated for 16 to 20 hrs in 12.5 % muller hinton medium by broth microdilution method; format: functional; details: time 16-20 hrs
Pseudomonas aeruginosa [16] = assay: Antibacterial activity against multidrug-resistant Pseudomonas aeruginosa clinical isolate ZEM9A incubated for 16 to 20 hrs in full muller hinton medium by broth microdilution method; format: functional; details: time 16-20 hrs
Pseudomonas aeruginosa [17] = assay: Antibacterial activity against multidrug-resistant Pseudomonas aeruginosa PA14 2P4 harboring pmrB mutant incubated for 16 to 20 hrs in full muller hinton medium by broth microdilution method; format: functional; details: time 16-20 hrs
Pseudomonas aeruginosa [18] = assay: Antimicrobial activity against Pseudomonas aeruginosa PAO1 incubated for 16 to 20 hrs in 12.5 % muller hinton medium by broth microdilution method; format: functional; details: time 16-20 hrs
Pseudomonas aeruginosa [19] = assay: Antibacterial activity against multidrug-resistant Pseudomonas aeruginosa PA14 incubated for 16 to 20 hrs in 12.5 % muller hinton medium by broth microdilution method; format: functional; details: time 16-20 hrs
Pseudomonas aeruginosa [20] = assay: Antibacterial activity against multidrug-resistant Pseudomonas aeruginosa PA14 4.13 harboring phoQ mutant incubated for 16 to 20 hrs in 12.5 % muller hinton medium by broth microdilution method; format: functional; details: time 16-20 hrs
Acinetobacter baumannii [21] = assay: Antimicrobial activity against Acinetobacter baumannii ATCC 19606 incubated for 16 to 20 hrs in 12.5 % muller hinton medium by broth microdilution method; format: functional; details: time 16-20 hrs
Pseudomonas aeruginosa [22] = assay: Antibacterial activity against multidrug-resistant Pseudomonas aeruginosa clinical isolate ZEM9A incubated for 16 to 20 hrs in 12.5 % muller hinton medium by broth microdilution method; format: functional; details: time 16-20 hrs
Pseudomonas aeruginosa [23] = assay: Antibacterial activity against multidrug-resistant Pseudomonas aeruginosa PA14 4.18 harboring pmrB mutant incubated for 16 to 20 hrs in 12.5 % muller hinton medium by broth microdilution method; format: functional; details: time 16-20 hrs
Acinetobacter baumannii [24] = assay: Antimicrobial activity against Acinetobacter baumannii ATCC 19606 incubated for 16 to 20 hrs in full muller hinton medium by broth microdilution method; format: functional; details: time 16-20 hrs
Escherichia coli [25] = assay: Antimicrobial activity against Escherichia coli W3110 incubated for 16 to 20 hrs in full muller hinton medium by broth microdilution method; format: functional; details: time 16-20 hrs
Pseudomonas aeruginosa [26] = assay: Antibacterial activity against multidrug-resistant Pseudomonas aeruginosa clinical isolate ZEM-1A incubated for 16 to 20 hrs in 12.5 % muller hinton medium by broth microdilution method; format: functional; details: time 16-20 hrs
Escherichia coli [27] = assay: Antimicrobial activity against Escherichia coli W3110 incubated for 16 to 20 hrs in 12.5 % muller hinton medium by broth microdilution method; format: functional; details: time 16-20 hrs
Enterobacter cloacae [28] = assay: Antibacterial activity against multidrug-resistant Enterobacter cloacae incubated for 16 to 20 hrs in 12.5 % muller hinton medium by broth microdilution method; format: functional; details: time 16-20 hrs
Pseudomonas aeruginosa [29] = assay: Antibacterial activity against multidrug-resistant Pseudomonas aeruginosa PA14 2P4 harboring pmrB mutant incubated for 16 to 20 hrs in 12.5 % muller hinton medium by broth microdilution method; format: functional; details: time 16-20 hrs

| SMILES | MIC (Pseudomonas aeruginosa [1]) [mg/L] | MIC (Klebsiella pneumoniae [2]) [mg/L] | MIC (Pseudomonas aeruginosa [3]) [mg/L] | MIC (Pseudomonas aeruginosa [4]) [mg/L] | MIC (Staphylococcus aureus [5]) [mg/L] | MIC (Klebsiella pneumoniae [6]) [mg/L] | MHC [7] [µg/mL] | Activity (Bacteria) | MIC (Staphylococcus aureus [9]) [mg/L] | MIC (Pseudomonas aeruginosa [11]) [mg/L] | MIC (Pseudomonas aeruginosa [12]) [mg/L] | MIC (Klebsiella pneumoniae [13]) [mg/L] | MIC (Enterobacter cloacae [14]) [mg/L] | Activity (rRNA) | MIC (Klebsiella pneumoniae [15]) [mg/L] | MIC (Pseudomonas aeruginosa [16]) [mg/L] | MIC (Pseudomonas aeruginosa [17]) [mg/L] | MIC (Pseudomonas aeruginosa [18]) [mg/L] | MIC (Acinetobacter baumannii [24]) [mg/L] | MIC (Pseudomonas aeruginosa [26]) [mg/L] | further results |
| --- | --- | --- | --- | --- | --- | --- | --- | --- | --- | --- | --- | --- | --- | --- | --- | --- | --- | --- | --- | --- | --- |
| CCC(C)C(NC(=O)C(CCCNC(=N)N)NC(=O)C(CCCNC(=N)N)NC(=O)C1CCCN1C(=O)C1CCCN1C(=O)C(CCCNC(=N)N)NC(=O)C1CCCN1C(=O)C(CCCNC(=N)N)NC(=O)C1CCCN1C(=O)C(CC(C)C)NC(=O)C(Cc1ccc(O)cc1)NC(=O)C1CCCN1C(=O)C1CCCN1C(=O)C(CCCCN)NC(=O)C(CC(=O)O)NC(=O)C(N)C(C)C)C(=O)NC(Cc1ccc(O)cc1)C(=O)NC(CC(N)=O)C(=O)NC(CCCNC(=N)N)C(N)=O (configuration not stated) (H-VDKPPYLPRPRPPRRIYNR-NH2; configuration not given here) | > 64 | > 16 | > 64 | > 64 | > 64 | > 64 | > 1000 | inactive | > 64 | > 64 | > 64 | > 64 | > 64 | inactive | > 64 | > 64 | > 64 |  |  |  | Activity (Lipid bilayer [8]): Active; Activity (Lipid bilayer [10]): Active |
| CC[C@H](C)[C@H](NC(=O)[C@H](CCCNC(=N)N)NC(=O)[C@H](CCCNC(=N)N)NC(=O)[C@@H]1CCCN1C(=O)[C@@H]1CCCN1C(=O)[C@H](CCCNC(=N)N)NC(=O)[C@@H]1CCCN1C(=O)[C@H](CCCNC(=N)N)NC(=O)[C@@H]1CCCN1C(=O)[C@@H](CC(C)C)NC(=O)[C@H](Cc1ccc(O)cc1)NC(=O)[C@@H]1CCCN1C(=O)[C@@H]1CCCN1C(=O)[C@H](CCCCN)NC(=O)[C@H](CC(=O)O)NC(=O)[C@@H](N)C(C)C)C(=O)N[C@@H](Cc1ccc(O)cc1)C(=O)N[C@@H](CC(N)=O)C(=O)N[C@@H](CCCNC(=N)N)C(N)=O (H-VDKPPY[dL]PRPRPPRRIYNR-NH2) | > 64 | > 16 | > 64 | > 32 | > 64 | > 64 | > 1000 |  | > 64 | > 32 | > 32 | > 64 | > 64 | inactive | > 64 | > 64 | > 64 | > 16 | > 64 | > 64 | MIC (Pseudomonas aeruginosa [19]): > 32 mg/L; MIC (Pseudomonas aeruginosa [20]): > 32 mg/L; MIC (Acinetobacter baumannii [21]): > 16 mg/L; MIC (Pseudomonas aeruginosa [22]): > 64 mg/L; MIC (Pseudomonas aeruginosa [23]): > 32 mg/L; MIC (Escherichia coli [25]): > 64 mg/L |
| CC[C@@H](C)[C@@H](NC(=O)[C@@H](CCCNC(=N)N)NC(=O)[C@@H](CCCNC(=N)N)NC(=O)[C@H]1CCCN1C(=O)[C@H]1CCCN1C(=O)[C@@H](CCCNC(=N)N)NC(=O)[C@H]1CCCN1C(=O)[C@@H](CCCNC(=N)N)NC(=O)[C@H]1CCCN1C(=O)[C@@H](CC(C)C)NC(=O)[C@@H](Cc1ccc(O)cc1)NC(=O)[C@H]1CCCN1C(=O)[C@H]1CCCN1C(=O)[C@@H](CCCCN)NC(=O)[C@@H](CC(=O)O)NC(=O)[C@H](N)C(C)C)C(=O)N[C@H](Cc1ccc(O)cc1)C(=O)N[C@H](CC(N)=O)C(=O)N[C@H](CCCNC(=N)N)C(N)=O (H-[dV][dD][dK][dP][dP][dY][dL][dP][dR][dP][dR][dP][dP][dR][dR][dI][dY][dN][dR]-NH2) | > 64 | > 16 | > 64 | > 64 | > 64 | > 64 | > 1000 | inactive |  | > 64 | > 64 | > 64 | > 64 | inactive |  | > 64 | > 64 |  | > 64 | > 64 |  |
| CC(C)CCCCC(=O)N[C@@H](CCN)C(=O)N[C@H](C(=O)N[C@@H](CCN)C(=O)N[C@H]1CCNC(=O)[C@H]([C@@H](C)O)NC(=O)[C@H](CCN)NC(=O)[C@H](CCN)NC(=O)[C@H](CC(C)C)NC(=O)[C@@H](Cc2ccccc2)NC(=O)[C@H](CCN)NC1=O)[C@@H](C)O.CC[C@H](C)CCCCC(=O)N[C@@H](CCN)C(=O)N[C@H](C(=O)N[C@@H](CCN)C(=O)N[C@H]1CCNC(=O)[C@H]([C@@H](C)O)NC(=O)[C@H](CCN)NC(=O)[C@H](CCN)NC(=O)[C@H](CC(C)C)NC(=O)[C@@H](Cc2ccccc2)NC(=O)[C@H](CCN)NC1=O)[C@@H](C)O (X1-[Dab]T[Dab][Dab][Dab][dF]L[Dab][Dab]T; lactam 4-C) | 0.5 | 1 | 16 | 2 | > 16 | 0.5 |  |  | 16 | > 0.5 | 2 | 1 | 2 |  | 1 | > 64 | 4 | 1 | 0.25 | 8 | MIC (Escherichia coli [27]): 0.2 mg/L; MIC (Pseudomonas aeruginosa [19]): 1 mg/L; MIC (Pseudomonas aeruginosa [20]): 2 mg/L; MIC (Acinetobacter baumannii [21]): 0.5 mg/L; MIC (Pseudomonas aeruginosa [22]): 2 mg/L; MIC (Pseudomonas aeruginosa [23]): 1 mg/L; MIC (Enterobacter cloacae [28]): 1 mg/L; MIC (Pseudomonas aeruginosa [29]): 1 mg/L; MIC (Escherichia coli [25]): 0.25 mg/L |
